{"source": "paper PMC8853664", "about": "“Protein visualization and manipulation in Drosophila through the use of epitope tags recognized by nanobodies” (eLife, 2022)", "system": "REPTOR", "test": "REPTOR localization in adult enterocytes after rapamycin treatment, detected with nanobody-GFP", "assay_type": "in vivo, Drosophila", "conditions": "rapamycin 50 µM in food, 15 hr; adult enterocytes co-expressing VHH05-REPTOR-127D01 and Nb127D01-GFP or NbVHH05-GFP; confocal imaging", "description": "To address whether NanoTagged POIs can be detected in vivo, we generated UAS-VHH05-REPTOR-127D01 flies. A previous study has shown that in S2 cells, the transcription factor REPTOR is enriched in the cytoplasm under normal conditions but translocates into the nucleus upon rapamycin treatment ([Tiebe et al., 2015]). To test whether the changes in REPTOR localization can be detected using the nanobodies, we co-expressed NanoTagged REPTOR along with Nb127D01-GFP or NbVHH05-GFP specifically in adult enterocytes (ECs). In the absence of a NanoTagged POI, Nb127D01-GFP and NbVHH05-GFP were detected in both the cytoplasm and nuclei (Figure 5G1). In contrast, when co-expressed with NanoTagged REPTOR, the nanobody-GFP signals were enriched in the cytoplasm of ECs under normal food conditions (Figure 5H and J). […] Similar changes were absent from ECs that express Nb127D01-GFP or NbVHH05-GFP alone (Figure 5G1).\nFor rapamycin treatment, rapamycin (LC Laboratories, R-5000) was dissolved in DMSO and mixed into the media when preparing food vials. The rapamycin dose was 50 µM. […]", "data": [{"smiles": "CO[C@H]1C[C@@H]2CC[C@@H](C)[C@@](O)(O2)C(=O)C(=O)N2CCCC[C@H]2C(=O)O[C@H]([C@H](C)C[C@@H]2CC[C@@H](O)[C@H](OC)C2)CC(=O)[C@H](C)/C=C(\\C)[C@@H](O)[C@@H](OC)C(=O)[C@H](C)C[C@H](C)/C=C/C=C/C=C/1C", "note": "[rapamycin, Rapamycin]", "values": [{"measurement": "REPTOR subcellular localization", "value": "leads to translocation of REPTOR into the nucleus"}]}]}
